“Also recorded” adds a separate entry of the source. Starred links: 1 amine or outer side, 2 acyl side, 3 side chain; linkers in the order of their positions; H or OH if unused. Positions of bridges follow the written chain, without caps; N, C: chain ends. Non-standard residues stand in square brackets, D forms with d. Residues, ends and D or L forms follow the SMILES beside them. *: point of attachment. DAMPA = CN(Cc1cnc2nc(N)nc(N)c2n1)c1ccc(C(=O)*)cc1; γGlu = O=C(O)[C@H](CCC(=O)[*:2])N[*:1]; Pen = CC(C)(S)[C@H](N)C(=O)O
Assays:
Molt-3 T-cells [1] = assay: cells; format: cell-based, human; conditions: 72 h
Protocol: (§1) The cytotoxicity of MTX-peptide conjugates was evaluated in different cell lines, lincluding Molt-3 and L1210 T-cells, and KB epithelial cells. […] After 72 h of growth, the relative numbers of viable cells were determined according to the manufacture's protocols for measuring cytotoxicity using a Dojindo Cytotoxicity Assay Cell counting Kit-8 (CCK-8). To measure the cell viability, 10 μL of CCK-8 was added to each well and the plate was incubated for 4 h. After incubation, the absorbance at 450 nm was measured using a UV plate reader. Cell growth in the presence of different drug concentrations was calculated relative to the value obtained in the absence of the drug. […] Serial dilutions of compounds were prepared in un-supplemented medium, and 110 μL of drug solution was aliquoted in duplicate into 900 μL cell suspensions. Control flasks were treated with 110 μL of un-supplemented medium. Cells were incubated under standard conditions for 48 h, sufficient to allow control cells to divide approximately four times. Growth inhibition was determined by counting the cells on a Z2 model Coulter Counter (Coulter Electronics Ltd, Luton, Beds, UK). The IC50 values were calculated using Graphpad Prism software (Graphpad Software, San Diego, Calif.). KB MTT Assay: KB cells were seeded in Falcons® 96 well plates (Becton-Dickinson Labware Europe, France) at a density of 1,500 cells/well in a volume of 0.18 mL culture medium and incubated under standard culture conditions for 24 h after seeding to allow entry into the exponential phase of cell growth. […] In each assay condition, control cells were treated with 20 μL of un-supplemented medium instead of drug. Cells were incubated for 96 h to allow control cells to divide approximately four times before cell viability was determined by MTT assay.

[2] = test system: L1210 mouse leukemia cells; assay: cells; format: cell-based; conditions: 48 h
Protocol: as §1

[3] = test system: dihydrofolate reductase enzyme (DHFR); assay: DHFR inhibition assay (spectrophotometric NADPH loss, Dixon plots); format: biochemical
Protocol: Into a 2.0 mL cuvette, a 1.0 mL solution of 0.11 mM β-NADPH and 33 μL of 2.3 mM DHFA were aliquoted and allowed to equilibrate. […] To begin the assay, 33 μL of DHFR (0.12-0.25 unit/mL with 0.1% BSA) was added to the reaction mixture. The absorbance of the reaction mixture was then recorded continuously for 5 min at 340 nm and the enzyme activity was determined by the rate of NADPH loss. Enzyme activity was determined for three different fixed concentrations of substrate (0.19, 1.9 and 10.0 mM DHFA).

KB epithelial cells = assay: KB MTT assay (96 h); format: cell-based, human
Protocol: Human KB epithelial l cells: The human KB epithelial cell line was a gift from Dr Gerrit Jansen (University Free Hospital, Amsterdam, Netherlands) and was developed to overexpress the membrane folate binding protein (mFBP). Cells were cultured in RPMI 1640 medium without folic acid and supplemented with 10% heat inactivated dialyzed FCS (50 mL volume), 0.2 mL of 50 μg/mL gentamicin, 1 mL of 50 μg/mL amphotericin B, and 5 mL of 200 mM L-glutamine. The folate source, 20 nM (R,S)-LV, was added to supply cells with adequate growth conditions.
The cytotoxicity of MTX-peptide conjugates was evaluated in different cell lines, lincluding Molt-3 and L1210 T-cells, and KB epithelial cells. […] After 72 h of growth, the relative numbers of viable cells were determined according to the manufacture's protocols for measuring cytotoxicity using a Dojindo Cytotoxicity Assay Cell counting Kit-8 (CCK-8). To measure the cell viability, 10 μL of CCK-8 was added to each well and the plate was incubated for 4 h. After incubation, the absorbance at 450 nm was measured using a UV plate reader. Cell growth in the presence of different drug concentrations was calculated relative to the value obtained in the absence of the drug. […] Growth inhibition was determined by counting the cells on a Z2 model Coulter Counter (Coulter Electronics Ltd, Luton, Beds, UK). The IC50 values were calculated using Graphpad Prism software (Graphpad Software, San Diego, Calif.). […] Cells were incubated for 96 h to allow control cells to divide approximately four times before cell viability was determined by MTT assay.
The number of viable cells after a 96-h incubation was determined by assessing their ability to reduce MTT ([…]). […] The absorbance of the solution in each well was measured at 540 nm on a MCC/340 model Titertak Multiscan® plate reader (Labsystems/Flow Laboratories, Oxfordshire, UK). The results were analyzed using Ascent Research software v.2.1 (Labsystems, UK).

[4] = test system: LFA-1 receptor on Molt-3 T-cells; assay: protection against MTX-cIBR toxicity in Molt-3 T-cells (LFA-1 mediated internalization, MTT); format: cell-based, human; conditions: similar experiment
Protocol: As a control, some cells were left untreated. […] As a reference for minimal metabolic activity, 10 mM of the succinate dehydrogenase inhibitor iodoacetamide (IAA) was added to untreated wells. […] The tubes were spun to pellet the cells and the supernatant was carefully removed. The formazan crystals were dissolved in 200 μL of 0.04 N HCl in isopropanol; the tubes were sonicated for 5 min to completely dissolve crystals and then re-centrifuged to pelletize the cell debris. 100 μL aliquots of the supernatant solutions were removed and transferred to a 96-well microtiter plate. The optical density of the solution was measured at 570 nm using a UV plate reader.

[5] = test system: Molt-3 T-cells/Calu-3 lung epithelial monolayers; assay: heterotypic adhesion of Molt-3 T-cells to Calu-3 lung epithelial monolayers; format: cell-based, human; conditions: for effect on adherence of Molt-3 T-cells to Calu-3 monolayers: IFN-γ-induced Calu-3, PMA-activated Molt-3
Protocol: Molt-3, Caco-2 and Calu-3 cell lines were obtained from the American Type Culture Collection (Rockville, Md.). Molt-3 and Caco-2 cells were maintained and grown using known methods. Briefly, the Caco-2 cell-line was grown as monolayers in Dulbecco's modified Eagle's medium (DMEM) with 25 mM glucose containing 10% FBS, 1% nonessential amino acids, 1 mM Na-pyruvate, 1% L-glutamine and […] of penicillin/streptomycin. Cells were grown in 75-cm^2 tissue culture flasks (Falcon) for maintenance purposes and in a 48-well cell culture cluster (Costar) for heterotypic-adhesion experiments. Before confluency was reached, Caco-2 cells were induced with 100 U/mL IFN-γ for 24 h to up-regulate the ICAM-1 expression. Calu-3, a lung epithelial cell line, was maintained in a 1:1 mixture of Ham's F12:DMEM containing 10% FBS and 100 μg/mL penicillin/streptomycin. Upon reaching 90% confluency (approximately 4-5 days), cells were subcultured at a 1:2 split ratio using 0.25% trypsin/0.1% EDTA. Calu-3 cells were induced with 500 U/mL IFN-γ for 48 h to up-regulate the ICAM-1 expression. All cell lines were grown in a 95% humidified/5% CO2 atmosphere at 37° C.
Heterotypic Adhesion Experiments with LFA-1 derived peptides—Two heterotypic cell adhesion systems were used in this work. The adhesion between Molt-3 T-cells/Calu-3 lung epithelial monolayers was used to assess the inhibitory activities of cLAB.L and cLAB.2L; Molt-3 T-cells/Caco-2 colon epithelial monolayers system was for cLAB.L and its derivatives. Briefly, Calu-3 or Caco-2 cell monolayers were pretreated with peptide solution prior to the adherence of fluorescence-labeled Molt-3 cells. […] Soluble lysates were transferred to 96-well (clear-bottom, black-sided) plates (Costar) for reading in a microplate fluorescence analyzer (Bio-Tek FL600) to give relative fluorescence (FL), i.e., the reading of fluorescence intensity of adherent corrected with the reading of cell monolayers only. Data were presented as the percentage of T-cell adherence calculated as follows: […]

Molt-3 T-cells [6] = assay: propidium iodide assay of growth and cytotoxicity in Molt-3 T-cells; format: cell-based, human; conditions: tested 0.1-500 μM

**Q.** For `CC(C)[C@H](NC(=O)[C@H](CO)NC(=O)CNC(=O)CNC(=O)[C@H](CCCNC(=N)N)NC(=O)[C@@H]1CCCN1C(=O)CC[C@H](NC(=O)c1ccc(N(C)Cc2cnc3nc(N)nc(N)c3n2)cc1)C(=O)O)C(N)=O` [MTX-PRGGSV] ({DAMPA-γGlu}-PRGGSV-NH2), which IC50 (Molt-3 T-cells [1]) is on record?
**A.** The IC50 was 5.13 ± 0.6 µM.

**Q.** What about the IC50 [2] of the same compound?
**A.** Its IC50 is 1.6 ± 0.4 µM.

**Q.** What does the source list for `CC[C@H](C)[C@H](NC(=O)[C@@H](NC(=O)CC[C@H](NC(=O)c1ccc(N(C)Cc2cnc3nc(N)nc(N)c3n2)cc1)C(=O)O)C(C)C)C(=O)N[C@@H](CC(C)C)C(=O)N1CCC[C@H]1C(=O)N[C@@H](CCCNC(=N)N)C(=O)NCC(N)=O` [MTX-VILPRG] ({DAMPA-γGlu}-VILPRG-NH2)?
**A.** IC50 (Molt-3 T-cells [1]): 9.12 ± 0.2 µM; IC50 [2]: 0.7 ± 0.3 µM

**Q.** `CC[C@H](C)[C@@H]1NC(=O)[C@H](C(C)C)NC(=O)[C@H](CCCCN)NC(=O)[C@H](CO)NC(=O)[C@@H]2CCCN2C(=O)[C@H](CO)NC(=O)[C@H](C(C)C)NC(=O)[C@H](CO)NC(=O)[C@H]([C@@H](C)O)NC(=O)[C@H](CCC(N)=O)NC(=O)[C@@H](NC(=O)CC[C@H](NC(=O)c2ccc(N(C)Cc3cnc4nc(N)nc(N)c4n3)cc2)C(=O)O)C(C)(C)SSC[C@@H](C(=O)O)NC1=O` [MTX-cIBL] ({DAMPA-γGlu}-[Pen]QTSVSPSKVIC-OH; disulfide 1-12) was tested. Which IC50 (Molt-3 T-cells [1]) did it give?
**A.** The IC50 was 2.68 ± 0.2 µM.

**Q.** And the IC50 [2]?
**A.** The IC50 was 9.14 ± 1 µM.

**Q.** And the “Km relative to that of MTX” value [3]?
**A.** Its value is “approximately 4 fold”.

**Q.** What about the Ymax ([3]; from Dixon plots) of the same compound?
**A.** The Ymax was 4.26 ± 0.07 × 10^−4.

**Q.** What about the IC50 (KB epithelial cells) of the same compound?
**A.** Its IC50 is > 10 µM.

**Q.** `CC(C)C[C@@H]1NC(=O)[C@H](C(C)C)NC(=O)[C@H](CO)NC(=O)CNC(=O)CNC(=O)[C@H](CCCNC(=N)N)NC(=O)[C@@H]2CCCN2C(=O)[C@@H](N)C(C)(C)SSC[C@@H](C(=O)O)NC(=O)CNC(=O)[C@H]([C@@H](C)O)NC(=O)[C@H](C(C)C)NC1=O` [cIBR peptide] (H-[Pen]PRGGSVLVTGC-OH; disulfide 1-12) was tested. Which “effect on cytotoxicity of MTX-cIBR” value [4] did it give?
**A.** Its value is “reduced the cytotoxicity of MTX-cIBR in a concentration dependent manner”.

**Q.** Which “effect on adherence of Molt-3 T-cells to Calu-3 monolayers” value [5] does the source give for “Xaa-Gly Val Asp Val Asp Glp Asp Gly Glu Thr-Cys [cLAB.2L, cyclic domain V peptide of LFA-1]” here?
**A.** The value was “did not interfere; also recorded: no significant effect”.

**Q.** How did the “concentration at which total growth inhibition emerged in Molt-3 cells” value (Molt-3 T-cells [6]) turn out when cyclol,12-PenDLSTSLDDLRC [cLBE.L] was run?
**A.** Its value is 100 µM.

**Q.** Which “effect on adherence of Molt-3 T-cells to Calu-3 monolayers” value [5] does the source give for cyclol,12-PenITDGEATDSGC [cLAB.L] here?
**A.** The value was “significantly reduces”.

**Q.** What about the “inhibition of heterotypic cell adhesion” value ([5]; IFN-γ-induced Calu-3 monolayers, BCECF labeled Molt-3 cells) of the same compound?
**A.** Its value is “about 40%”.

**Q.** What about the “concentration at which total growth inhibition emerged in Molt-3 cells” value (Molt-3 T-cells [6]) of the same compound?
**A.** The value was 100 µM.
